{"source": "patent US11738072B2", "about": "“Tumor vaccine and uses thereof” (WestVac Biopharma Co., Ltd., priority 2017, dated 2023)", "key": {"[1]": {"test_system": "CT26 cells", "assay": "Mitochondrial membrane potential by TMRM, flow cytometry", "format": "cell-based, mouse", "conditions": "CT26, 15-24 h", "method": "(1) Inoculation of tumor cells in plates: A549 cells and CT26 cells in the logarithmic growth phase were prepared into a cell suspension respectively, inoculated into a 6-well plate as per 1×10^5 cells/well, 2 ml of medium was added to each well, and cultured overnight in a 5% CO2 incubator at 37° C.\n(2) Different samples added to act on tumor cells: the pMVA-1 plasmid, the DOTAP cationic lipid and the pMVA-1/DOTAP complex were added to the tumor cells cultured in Step (1) respectively, and incubated at 37° C. for 15 h, 18 h, 21 h and 24 h.\n(3) Preparation of TMRM dyeing working fluid (made by Life Technologies): the TMRM mother liquor was diluted with PBS at a ratio of 1:100000 to obtain the TMRM dyeing working fluid. […]\n(5) The tumor cells in Step (4) were collected and treated with different samples for different times, and the tumor cells with mitochondrial membrane potential changes were analyzed by flow cytometry.\nAs a potentiometric fluorescence probe, tetramethylrhodamine methyl ester (TMRM) entered the cells and was cleaved by cell lactonase to produce tetramethylrhodamine, indicating strong fluorescence after they had entered mitochondria. […] Therefore, the open state of mitochondrial membrane channel pores can be verified by testing the changes of fluorescence intensity in mitochondria of tumor cells."}, "[2]": {"test_system": "bone marrow-derived dendritic cells (BMDC)", "assay": "FITC-Dextran uptake by BMDC, flow cytometry", "format": "cell-based, mouse", "conditions": "BMDC stimulated 24 h by CT26 cells treated with sample", "method": "a. Bone marrow cells were obtained from the femur and tibia of mouse, sieved and collected in a centrifuge tube, centrifuged at 280 g and at room temperature for 5 min, and the supernatant was discarded.\nb. 10 ml of red cell lysate was added to the cells described in Step a, standing for 3 min at room temperature, centrifuged at 280 g and at room temperature for 5 min, and the supernatant was discarded.\nc. The bone marrow cells described in Step b were washed twice with PRMI-1640 medium, centrifuged at 280 g and at room temperature for 10 min, live cell count was carried out, the cell concentration was adjusted to 1×10^6 cells/ml by RPMI-1640 complete medium.\nd. In Step c, the recombinant mouse GM-CS with a final concentration of 10 ng/ml was added and 4 ml/well cell suspension was inoculated into a 6-well plate, and cultured in a 37° C., 5% CO2 incubator. When cell colonies grew on the bottom of the plate, the medium was pipetted, washed once with the medium, and 1640 complete medium containing 10 ng/ml of GM-CSF was added to each well.\ne. […]\nd. Test and analysis of fluorescence intensity of BMDC based on flow cytometry."}}, "data": [{"smiles": "CCCCCCCC/C=C\\CCCCCCCC(=O)OCC(C[N+](C)(C)C)OC(=O)CCCCCCC/C=C\\CCCCCCCC", "note": "(centres unmarked) [DOTAP, 1,2-dioleoyl-3-trimethylammonium-propane]", "values": [{"measurement": "mitochondrial membrane potential", "setting": "[1]", "result": "did not change significantly"}, {"measurement": "FITC average fluorescence intensity of CD11c positive DC", "setting": "[2]", "result": "decreased significantly"}]}]}
